The text below walks through data of US10280179B2, “Spiroquinoxaline derivatives as inhibitors of non-apoptotic regulated cell-death” (Helmholtz Zentrum Munchen—Deutches Forschungszentrum Fur …, priority 2013, dated 2019).

pIC50: −log10 of the molar value.

One data set relates to mouse hippocampal cell line (Ht22). The experiment in a line: Inhibition of glutamate-induced non-apoptotic cell death (Example B.2). The data set is classed as cell-based. As to conditions: HT-22, Ht22 cells, glutamate-induced cell death, read-out: Ht22/GLU. An excerpt:
Inhibition of Glutamate-Induced Non-Apoptotic Cell Death by Compounds of the Present Invention
Glutamate toxicity is conferred on cells from the mouse hippocampal cell line (Ht22) by inhibition of the cysteine/glutamate antiporter, System xc-, leading to impaired cysteine uptake and subsequent GSH depletion. This model is frequently used for mimicking glutathione depletion following oxidative stress in stroke, brain trauma and other neurodegenerative diseases and cellular conditions following ischemia (for example: van Leyen et al, J. Neurochem. 92:824-30 (2005)).
Compounds disclosed herein were evaluated for their ability to promote cell survival upon administration of a lethal dose of glutamate (GLU) to the cell-culture medium.
Briefly, Ht22 cells (ATCC) were propagated DMEM supplemented with 10% FBS/1% Penicillin-Streptomycin, and then seeded onto 96-well plates at a concentration of 2,000 cells/well in 100 μL of MEDIA, simultaneously with glutamate (Sigma Aldrich) to a final concentration of 5 mM, together with increasing concentrations of the compound to be tested (0.5 pM to 100 μM), and the plates incubated at 37° C./5% CO2 for 72 hours. Compound dilutions were prepared from 10 mM stocks dissolved in DMSO and diluted in media. Cells treated with glutamate alone were used as negative control and alpha-tocopherol (Sigma Aldrich) was used as positive control. Compound concentrations were tested in triplicate. After incubation, cell survival was detected and quantified as described in Example B.1.
Take `CN1CCC2(CC1)Nc1ccccc1N=C2NCc1cccc(C(F)(F)F)c1` [N-215]: the pIC50 was > 7.30.

As for `c1ccc(CCCNC2=Nc3ccccc3NC23CCCCC3)cc1` [C-221], the pIC50 is > 6.00.

For the molecule `COc1cccc(CNC2=Nc3ccccc3NC23CCNCC3)c1` [N-14], the pIC50 was > 6.70.

In the case of `CN1CCC2(CC1)Nc1cc(F)c(F)cc1N=C2NCc1ccccc1` [N-229], the pIC50 is > 7.00.

With `Clc1cc2c(cc1Cl)NC1(CCNCC1)C(NCc1ccccc1Cl)=N2` [N-207], the pIC50 is > 7.30.

For `Cc1cc(C)cc(CNC2=Nc3ccccc3NC23CCSCC3)c1` [O/S-357], the pIC50 was > 6.30.

`c1ccc(CNC2=Nc3ccccc3NC23CCCNCC3)cc1` (centres unmarked) [N-212]: the pIC50 was > 6.00.

`Cc1cc2c(cc1C)NC1(CCN(C)CC1)C(NCc1ccccc1)=N2` [N-233]: the pIC50 was > 7.00.

For the molecule `Fc1cccc(F)c1CNC1=Nc2ccccc2NC12CCSCC2` [O/S-351], the pIC50 is > 6.00.

For the molecule `O=S1(=O)CCC2(CC1)Nc1cc(Cl)c(Cl)cc1N=C2NCc1ccccc1` [O/S-360], the pIC50 was > 5.70.

On to `CC(NC1=Nc2ccccc2NC12CCCCC2)c1ccccc1` (centres unmarked) [C-244], for which the pIC50 is > 6.00.

As to `c1ccc(C(CNC2=Nc3ccccc3NC23CCCCC3)c2ccccc2)cc1` [C-229], the pIC50 is > 6.00.

For the molecule `Cc1cc2c(cc1C)NC1(CCNCC1)C(NCc1ccc(Cl)c(Cl)c1)=N2` [N-232], the pIC50 is > 8.00.

`c1ccc(CCNC2=Nc3ccccc3NC23CCOCC3)cc1` [O/S-347]: the pIC50 was > 5.30.

In the case of `c1ccc(CCCNC2=Nc3ccccc3NC23CCSCC3)cc1` [O/S-356], the pIC50 is > 5.70.

For the molecule `c1ccc(CCCNC2=Nc3ccccc3NC23CCNCC3)cc1` [N-228], the pIC50 is > 7.30.

Regarding `Clc1cc2c(cc1Cl)NC1(CCCCCCC1)C(NCc1ccccc1)=N2` [C-237], the pIC50 was > 6.30.

`Cc1cc(C)cc(CNC2=Nc3ccccc3NC23CCCCC3)c1` [C-225]: the pIC50 is > 6.30.

`Fc1cc2c(cc1F)NC1(CCOCC1)C(NCc1ccccc1)=N2` [O/S-346]: the pIC50 is > 6.00.

In the case of `Cc1cc2c(cc1C)NC1(CCCCCC1)C(NCc1ccccc1)=N2` [C-239], the pIC50 was > 6.70.

For the molecule `c1ccc(CCCCNC2=Nc3ccccc3NC23CCCCC3)cc1` [C-232], the pIC50 is > 6.00.

Regarding `c1ccc(CNC2=Nc3ccccc3NC23CCCCCCC3)cc1` [C-236], the pIC50 was > 6.30.

For a further data set, the system named is Pfa1 cells. In words: Inhibition of non-apoptotic cell death after tamoxifen-induced GPx4 knockout in a recombinant cell line (Example B.4). Format: cell-based. As to conditions: Mus musculus, read-out: Pfa1/TAM IC50. The text has this:
Inhibition of Non-Apoptotic Cell-Death by Compounds Disclosed Herein Using a Recombinant Cell Line
To combat high intracellular ROS levels, mammalian cells have evolved an intricate network of ROS scavenging in cells, in which the thioredoxin and glutathione (GSH) dependent systems prevail. […] Knockout of GPx4 in neurons causes massive neurodegeneration in cortical, cerebellar and hippocampal neurons underscoring the high relevance of ROS-induced cell death signaling in the brain. Briefly, immortalised fibroblasts from these mice were made to contain tamoxifen-inducible CreERT2, which catalyzes the functional ablation of both copies of GPx4 and resulting in a complete knockout of GPx4, a massive ROS burst, and cell death in cell culture. These cells (Pfa1 cells) were used to characterize compounds of the present invention, whereby tamoxifen (TAM) was given on day 0 along with the compound under test, and 72 hours later cell survival was evaluated using AlamarBlue.
Take `CN1CCC2(CC1)Nc1ccccc1N=C2NCc1cccc(C(F)(F)F)c1` [N-215]: the pIC50 is > 7.30.

For `c1ccc(CCCNC2=Nc3ccccc3NC23CCCCC3)cc1` [C-221], the pIC50 was > 6.00.

As for `COc1cccc(CNC2=Nc3ccccc3NC23CCNCC3)c1` [N-14], the pIC50 is > 6.30.

Take `CN1CCC2(CC1)Nc1cc(F)c(F)cc1N=C2NCc1ccccc1` [N-229]: the pIC50 is > 7.00.

`Clc1cc2c(cc1Cl)NC1(CCNCC1)C(NCc1ccccc1Cl)=N2` [N-207]: the pIC50 was > 8.00.

As for `Cc1cc(C)cc(CNC2=Nc3ccccc3NC23CCSCC3)c1` [O/S-357], the pIC50 was > 6.30.

In the case of `c1ccc(CNC2=Nc3ccccc3NC23CCCNCC3)cc1` (centres unmarked) [N-212], the pIC50 is > 6.00.

On to `Cc1cc2c(cc1C)NC1(CCN(C)CC1)C(NCc1ccccc1)=N2` [N-233], for which the pIC50 was > 6.70.

As for `Fc1cccc(F)c1CNC1=Nc2ccccc2NC12CCSCC2` [O/S-351], the pIC50 was > 6.00.

As for `O=S1(=O)CCC2(CC1)Nc1cc(Cl)c(Cl)cc1N=C2NCc1ccccc1` [O/S-360], the pIC50 is > 5.70.

`CC(NC1=Nc2ccccc2NC12CCCCC2)c1ccccc1` (centres unmarked) [C-244]: the pIC50 was > 6.00.

For `c1ccc(C(CNC2=Nc3ccccc3NC23CCCCC3)c2ccccc2)cc1` [C-229], the pIC50 is > 6.70.

For `Cc1cc2c(cc1C)NC1(CCNCC1)C(NCc1ccc(Cl)c(Cl)c1)=N2` [N-232], the pIC50 was > 8.00.

`c1ccc(CCNC2=Nc3ccccc3NC23CCOCC3)cc1` [O/S-347]: the pIC50 is > 5.30.

In the case of `c1ccc(CCCNC2=Nc3ccccc3NC23CCSCC3)cc1` [O/S-356], the pIC50 was > 5.70.

Take `c1ccc(CCCNC2=Nc3ccccc3NC23CCNCC3)cc1` [N-228]: the pIC50 was > 7.00.

In the case of `Clc1cc2c(cc1Cl)NC1(CCCCCCC1)C(NCc1ccccc1)=N2` [C-237], the pIC50 is > 6.30.

In the case of `Cc1cc(C)cc(CNC2=Nc3ccccc3NC23CCCCC3)c1` [C-225], the pIC50 was > 6.30.

`Fc1cc2c(cc1F)NC1(CCOCC1)C(NCc1ccccc1)=N2` [O/S-346]: the pIC50 is > 6.30.

Consider `Cc1cc2c(cc1C)NC1(CCCCCC1)C(NCc1ccccc1)=N2` [C-239], for which the pIC50 is > 6.70.

On to `c1ccc(CCCCNC2=Nc3ccccc3NC23CCCCC3)cc1` [C-232], for which the pIC50 is > 5.70.

With `c1ccc(CNC2=Nc3ccccc3NC23CCCCCCC3)cc1` [C-236], the pIC50 was > 6.30.

Tested on in the next data set: not listed separately
In words: Cellular toxicity, same assay as Example B.4 without TAM (Example B.5). As to conditions: mouse; Pfa1 cells without TAM; read-out: TC50 (the source's name). Format: cell-based. An excerpt: Cellular Toxicity of Compounds of the Invention
An estimate of the toxicity for compounds of the invention was obtained by using the same assay as described in Example B.4, but without the addition of TAM. […] Such TC50 values obtained for certain compounds disclosed herein, together with an approximate therapeutic window (estimated by dividing each TC50 by the corresponding IC50 determined from example B.4) are shown in Table 3.
For `CN1CCC2(CC1)Nc1ccccc1N=C2NCc1cccc(C(F)(F)F)c1` [N-215], the CC50 lay within 5000 to 10000 nM.

Regarding `c1ccc(CCCNC2=Nc3ccccc3NC23CCCCC3)cc1` [C-221], the CC50 is 5000 to 10000 nM.

Consider `COc1cccc(CNC2=Nc3ccccc3NC23CCNCC3)c1` [N-14], for which the CC50 fell in the range of 20000 to 50000 nM.

As to `CN1CCC2(CC1)Nc1cc(F)c(F)cc1N=C2NCc1ccccc1` [N-229], the CC50 fell in the range of 5000 to 10000 nM.

`Clc1cc2c(cc1Cl)NC1(CCNCC1)C(NCc1ccccc1Cl)=N2` [N-207]: the CC50 was in the range of 500 to 1000 nM.

In the case of `Cc1cc(C)cc(CNC2=Nc3ccccc3NC23CCSCC3)c1` [O/S-357], the CC50 was 10000 to 20000 nM.

As for `c1ccc(CNC2=Nc3ccccc3NC23CCCNCC3)cc1` (centres unmarked) [N-212], the CC50 lay in the range of 10000 to 20000 nM.

As to `Cc1cc2c(cc1C)NC1(CCN(C)CC1)C(NCc1ccccc1)=N2` [N-233], the CC50 is 10000 to 20000 nM.

For the molecule `Fc1cccc(F)c1CNC1=Nc2ccccc2NC12CCSCC2` [O/S-351], the CC50 fell in the range of 50000 to 100000 nM.

`CC(NC1=Nc2ccccc2NC12CCCCC2)c1ccccc1` (centres unmarked) [C-244]: the CC50 was in the range of 10000 to 20000 nM.

For the molecule `c1ccc(C(CNC2=Nc3ccccc3NC23CCCCC3)c2ccccc2)cc1` [C-229], the CC50 is 2000 to 5000 nM.

In the case of `Cc1cc2c(cc1C)NC1(CCNCC1)C(NCc1ccc(Cl)c(Cl)c1)=N2` [N-232], the CC50 was 1000 to 2000 nM.

Consider `c1ccc(CCNC2=Nc3ccccc3NC23CCOCC3)cc1` [O/S-347], for which the CC50 fell in the range of 50000 to 100000 nM.

As for `c1ccc(CCCNC2=Nc3ccccc3NC23CCSCC3)cc1` [O/S-356], the CC50 lay in the range of 20000 to 50000 nM.

On to `c1ccc(CCCNC2=Nc3ccccc3NC23CCNCC3)cc1` [N-228], for which the CC50 was in the range of 2000 to 5000 nM.

With `Clc1cc2c(cc1Cl)NC1(CCCCCCC1)C(NCc1ccccc1)=N2` [C-237], the CC50 was 10000 to 20000 nM.

Take `Cc1cc(C)cc(CNC2=Nc3ccccc3NC23CCCCC3)c1` [C-225]: the CC50 lay in the range of 10000 to 20000 nM.

Turning to `Fc1cc2c(cc1F)NC1(CCOCC1)C(NCc1ccccc1)=N2` [O/S-346], the CC50 fell in the range of 50000 to 100000 nM.

Regarding `Cc1cc2c(cc1C)NC1(CCCCCC1)C(NCc1ccccc1)=N2` [C-239], the CC50 fell in the range of 10000 to 20000 nM.

`c1ccc(CCCCNC2=Nc3ccccc3NC23CCCCC3)cc1` [C-232]: the CC50 was 20000 to 50000 nM.

With `c1ccc(CNC2=Nc3ccccc3NC23CCCCCCC3)cc1` [C-236], the CC50 lay in the range of 10000 to 20000 nM.
